From article PMC8490629, “Metabolites of Procyanidins From Litchi Chinensis Pericarp With Xanthine Oxidase Inhibitory Effect and Antioxidant Activity” (Frontiers in Nutrition, 2021) come the findings set out here.

Where two headings read alike, the source gives them in different places. Marks after values point to notes of the source that are not given here. Where only a bound is given, the exact number is not on record here.

One series addresses T1, xanthine oxidase (Bos taurus, UniProt P80457).
T1 construct: purchased Sigma (St. Louis, MO, USA)
In words: Xanthine oxidase inhibition assay (uric acid production from xanthine, 295 nm). The class given is biochemical. As to conditions: for IC50: read-out: IC50 (μg/ml) xanthine oxidase (converted); for inhibition at 200 µg/mL: read-out: Inhibition (%) at 200 μg/ml.

Series [1] is described as follows: Hydroxyl radical scavenging activity. On the procedure: Hydroxyl radical scavenging activity was assessed according to the method of Dong et al. ([42]) with modifications. The reagents and samples were added strictly obeying following order: 0.25 ml 1.5 mM phenanthroline ethanolic solution, 0.5 ml phosphoric acid buffer (pH = 7.4), 0.25 ml 1.5 mM freshly prepared ferrous sulfate solution, 0.5 ml sample (0–0.5 mg), and 0.25 ml 0.01% H2O2. The injured tubes in the experiment were prepared by the same reagents except samples, while control was carried out by adding sample without H2O2. The mixtures were shaken and incubated at 37°C for 1 h, and then measured at 536 nm. The hydroxyl radical scavenging activity was calculated using the following equation:
hydroxyl radical scavenging rate (%) =Asample-Ainjured/Acontrol-Ainjured ×100

Series [2] in a line: DPPH radical scavenging activity. On the procedure: 1, 1-Diphenyl-2-picrylhydrazyl radical scavenging activity was determined referring to the method described previously ([41]). Litchi pericarp and phenolic acids were dissolved in 1.0 ml of deionized water at various concentrations ranging from 2.0 to 100.0 μg/ml. Then, the solution of the sample was mixed with 1.0 ml of freshly prepared 0.2 mM DPPH ethanolic solution. Control in the experiment was prepared by the same reagent without the sample. All the tubes were incubated at 37°C for 30 min in the dark, and the final solution was recorded at 517 nm. The DPPH radical scavenging activity was calculated using the following equation:
DPPH radical scavenging rate (%) =(Acontrol-Asample)/Acontrol × 100
(Loss of DPPH colour is used to gauge radical scavenging.)

Series [3] can be described thus: Urinary excretion of procyanidins and metabolites in rats after oral LPPC (HPLC / LC-MS). The class given is in vivo, rat. The conditions noted are these: for Urinary excretion, phenolic acids / Urinary excretion, procyanidin (% to oral dose): rat urine 0-24 h after oral LPPC 300 mg/kg, after glucuronidase/sulfatase deconjugation; for Urinary excretion as share of the oral intake: rat urine, oral LPPC 300 mg/kg bw. The method, then:
Male Sprague-Dawley rats weighing 220 ± 20 g were randomly divided into two groups (n = 20) with 10 rats in each group. Prior to administration, animals were deprived of food for 12 h, but had access to deionized water. The LPPC was dissolved in physiological saline and administered orally to rats at a dose of 300 mg/kg body weight. In addition, the physiological saline was administered orally to the rats in another group as control. All the rats were placed in metabolic cages, each rat per cage (Jiayuan Technology Co. Ltd., Beijing, China). The samples of urine excreted from 0 to 24 h postadministration were collected from the bottom of the metabolic cage under chilled conditions using an ice bath and stored at −80°C before analysis, referring to the method described previously ([38]).
The sample of urine was centrifuged at 4,000 r/min for 10 min at 4°C, and the supernatant was collected. The supernatant was acidified to pH = 5.5 with 0.6 mol/l acetic acid and incubated at 37°C for 60 min in the presence of 10 KU β-glucuronidase with the activity of sulfatase. After further acidification to pH = 2 with 6 mol/l HCl, the samples were directly extracted by ethyl acetate × 3. The resulting supernatant was dried under vacuum by rotatory evaporation at 40°C until the ethyl acetate was completely removed and dissolved in 1 ml of 50% methanol. Then, the solution was purified by the solid phase extraction, and the residue was redissolved in methanol and analyzed by LC-MS as described by Li et al. with modifications ([39]).
Selected samples were analyzed on an Agilent 1100 LC-ESI-MS system (Agilent Technologies Co. Ltd., Foster City, California, USA) to identify metabolites in urine. A VP-ODS column (150 × 4.6 mm ID, 5 μm particle size, Shimadzu Co., Kyoto, Japan) was used and 20 μl solution of the sample was injected. The mobile phases consisted of 0.4% (v/v) aqueous acetic acid as A and acetonitrile as B with the following linear gradient: from 5 to 35% B in the first 40 min, from 35 to 50% B in the next 5 min, from 50 to 80% B in the next 5 min, and from 80 to 5% B in the next 5 min, and re-equilibrated with 5% B for 5 min before next injection. The flow rate was 0.2 ml/min and the absorbance of the eluate was monitored at 280 nm. Mass spectra were collected using an electrospray ionization (ESI) ion source in the negative mode under the following conditions: orifice voltage, −30 V; nebulizing pressure, 30 psi; heat capillary temperature, 275°C; and mass range, m/z 100-1,200.

T1 sequence (P80457 2-1332 limits assumed): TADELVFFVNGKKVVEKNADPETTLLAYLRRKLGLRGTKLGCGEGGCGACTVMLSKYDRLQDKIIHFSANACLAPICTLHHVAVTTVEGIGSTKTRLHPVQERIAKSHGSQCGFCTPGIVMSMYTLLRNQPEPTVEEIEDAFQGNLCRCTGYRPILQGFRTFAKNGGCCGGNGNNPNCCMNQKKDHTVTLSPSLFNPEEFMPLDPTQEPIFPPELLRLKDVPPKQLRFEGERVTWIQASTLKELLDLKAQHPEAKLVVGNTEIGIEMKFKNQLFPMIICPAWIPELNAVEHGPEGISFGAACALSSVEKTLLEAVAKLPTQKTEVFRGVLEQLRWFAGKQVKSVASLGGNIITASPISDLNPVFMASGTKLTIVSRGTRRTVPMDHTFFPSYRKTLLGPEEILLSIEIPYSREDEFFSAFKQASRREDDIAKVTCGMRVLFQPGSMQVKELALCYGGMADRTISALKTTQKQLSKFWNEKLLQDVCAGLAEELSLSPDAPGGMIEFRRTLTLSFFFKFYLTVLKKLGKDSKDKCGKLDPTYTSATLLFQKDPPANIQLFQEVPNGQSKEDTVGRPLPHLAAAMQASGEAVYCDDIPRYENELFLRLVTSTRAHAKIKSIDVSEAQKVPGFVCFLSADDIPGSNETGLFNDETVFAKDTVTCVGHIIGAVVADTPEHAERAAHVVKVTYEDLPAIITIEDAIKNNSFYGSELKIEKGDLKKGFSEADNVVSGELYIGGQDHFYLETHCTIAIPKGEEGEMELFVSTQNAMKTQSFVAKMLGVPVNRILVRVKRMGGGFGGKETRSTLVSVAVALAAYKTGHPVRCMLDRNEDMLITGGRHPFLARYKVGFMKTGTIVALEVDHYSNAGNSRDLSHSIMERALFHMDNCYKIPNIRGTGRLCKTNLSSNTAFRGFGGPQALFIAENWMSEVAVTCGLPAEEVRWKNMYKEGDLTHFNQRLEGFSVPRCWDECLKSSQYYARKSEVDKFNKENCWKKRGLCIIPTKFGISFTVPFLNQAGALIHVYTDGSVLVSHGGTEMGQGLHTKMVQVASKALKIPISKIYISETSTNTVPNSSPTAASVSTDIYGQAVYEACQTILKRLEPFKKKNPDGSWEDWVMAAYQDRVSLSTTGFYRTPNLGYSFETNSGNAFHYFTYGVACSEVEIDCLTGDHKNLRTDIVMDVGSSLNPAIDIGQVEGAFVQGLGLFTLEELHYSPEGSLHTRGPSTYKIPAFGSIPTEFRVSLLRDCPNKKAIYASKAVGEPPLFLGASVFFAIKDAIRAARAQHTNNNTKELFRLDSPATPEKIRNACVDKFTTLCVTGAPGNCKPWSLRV

On to `O=C(O)Cc1cccc(O)c1` [3-Hydroxyphenylacetic acid, 3-hydroxyphenylacetic acid], for which the IC50 at xanthine oxidase was greater than 1310 µM. The inhibition at 200 µg/mL on xanthine oxidase (xanthine oxidase, 200 μg/ml) worked out at 21.1 ± 1.78%. Besides, the “IC50 (μg/ml) ·OH” value in series [1] was 803.47 ± 6.38^g μg/ml. The “IC50 (μg/ml) DPPH·” value in series [2] is 82.60 ± 1.95^h μg/ml; in series [2] (listed as 3-hydroxyphenylacetic acid) it was greater than 50 µg/mL. In addition, in series [3], the “Urinary excretion, phenolic acids” value is 46.98 ± 3.76 nmol.

With `O=C(O)CCc1cccc(O)c1` [3-Hydroxyphenylpropionic acid, 3-hydroxyphenylpropionic acid], the IC50 at xanthine oxidase is greater than 1200 µM. Moreover, the inhibition at 200 µg/mL at xanthine oxidase (xanthine oxidase, 200 μg/ml) was 27 ± 1.44%. In addition, in series [1], the “IC50 (μg/ml) ·OH” value was 841.57 ± 4.45^h μg/ml. Besides, the “IC50 (μg/ml) DPPH·” value in series [2] is 77.83 ± 0.93^g μg/ml; in series [2] (listed as 3-hydroxyphenylpropionic acid), greater than 50 µg/mL. Also, in series [3], the “Urinary excretion, phenolic acids” value was 12.87 ± 3.06 nmol.

Consider `O=C(O)CCc1ccc(O)cc1` [4-Hydroxyphenylpropionic acid, 4-hydroxyphenylpropionic acid], for which, at xanthine oxidase, the IC50 was greater than 1200 µM. For the same compound, the inhibition at 200 µg/mL at xanthine oxidase (xanthine oxidase, 200 μg/ml) is 29.4 ± 0.75%. The “IC50 (μg/ml) ·OH” value in series [1] is listed as 813.87 ± 5.48^g μg/ml. For the same compound, the “IC50 (μg/ml) DPPH·” value in series [2] is 74.63 ± 1.40^f μg/ml; in series [2] (listed as 4-hydroxyphenylpropionic acid), greater than 50 µg/mL. Besides, the “Urinary excretion, phenolic acids” value in series [3] is on record as 60.54 ± 3.18 nmol.

In the case of `Oc1cc(O)c2c(c1)O[C@H](c1ccc(O)c(O)c1)[C@H](O)C2` [(-)-Epicatechin, (-)-epicatechin], on xanthine oxidase, the IC50 was 201 µM. The “Inhibition (%) at 200 μg/ml” value on xanthine oxidase (xanthine oxidase, 200 μg/ml) is listed as 78.63 ± 1.72^b %; at xanthine oxidase (xanthine oxidase, 200 μg/ml, listed as epicatechin), “higher than 50%”. In addition, in series [1], the “IC50 (μg/ml) ·OH” value is 121.27 ± 1.80^a μg/ml. Further, the “IC50 (μg/ml) DPPH·” value in series [2] is 5.43 ± 0.10^a μg/ml. For the same compound, the “Urinary excretion, procyanidin (% to oral dose)” value in series [3] was 0.21 ± 0.04 % to oral dose. Moreover, the “Urinary excretion as share of the oral intake” value (“Urinary excretion as share” for short) in series [3] is 0.21 ± 0.04 % (mol/mol).

As for `Oc1cc(O)c2c(c1)OC1(c3ccc(O)c(O)c3)Oc3cc(O)c4c(c3C2C1O)OC(c1ccc(O)c(O)c1)C(O)C4` (stereo not drawn) [A-type dimer], the IC50 on xanthine oxidase is 119 µM. The “IC50 (μg/ml) ·OH” value in series [1] was 126.57 ± 2.58^a μg/ml. In addition, in series [2], the “IC50 (μg/ml) DPPH·” value was 5.86 ± 0.14^a μg/ml. In addition, in series [3], the “Urinary excretion, procyanidin (% to oral dose)” value is given as 0.54 ± 0.09 % to oral dose and the “Urinary excretion as share” value is listed as 0.54 ± 0.09 % (mol/mol).

With `Oc1cc(O)c2c(c1)OC1(c3ccc(O)c(O)c3)Oc3cc(O)c4c(c3C2C1O)OC(c1ccc(O)c(O)c1)C(O)C4c1c(O)cc(O)c2c1OC(c1ccc(O)c(O)c1)C(O)C2` (stereo not drawn) [A-type trimer], at xanthine oxidase, the IC50 was 86.6 µM. Further, on xanthine oxidase (xanthine oxidase, 200 μg/ml), the inhibition at 200 µg/mL is greater than 50%. Besides, the “IC50 (μg/ml) ·OH” value in series [1] is 122.73 ± 2.35^a μg/ml. In series [2], the “IC50 (μg/ml) DPPH·” value is 8.00 ± 0.18^b μg/ml. Moreover, in series [3], the “Urinary excretion, procyanidin (% to oral dose)” value is 0.43 ± 0.02 % to oral dose and the “Urinary excretion as share” value is 0.43 ± 0.02 % (mol/mol).

With `Oc1ncnc2[nH]ncc12` [Allopurinol, reference compound], on xanthine oxidase, the inhibition at 200 µg/mL turned out to be 85.6 ± 3.13%.

Turning to `O=C(O)/C=C/c1ccc(O)c(O)c1` [Caffeic acid, caffeic acid], the IC50 at xanthine oxidase was 531 µM. Besides, the “IC50 (μg/ml) ·OH” value in series [1] is listed as 161.47 ± 3.31^c μg/ml. Besides, the “IC50 (μg/ml) DPPH·” value in series [2] is reported as 9.88 ± 0.55^c μg/ml. In addition, the “Urinary excretion, phenolic acids” value in series [3] worked out at 20.67 ± 2.68 nmol.

On to `O=C(O)C1=C[C@@H](O)[C@@H](O)[C@H](O)C1` [Shikimic acid, shikimic acid], for which, at xanthine oxidase, the IC50 is 552 µM. Further, on xanthine oxidase (xanthine oxidase, 200 μg/ml), the “Inhibition (%) at 200 μg/ml” value was 61.13 ± 0.81^f % and the inhibition at 200 µg/mL was greater than 50%. Besides, in series [1], the “IC50 (μg/ml) ·OH” value is 186.53 ± 7.56^d μg/ml. The “IC50 (μg/ml) DPPH·” value in series [2] is given as 8.96 ± 0.18b^c μg/ml. Also, the “Urinary excretion, phenolic acids” value in series [3] was found to be 27.22 ± 7.02 nmol.

Turning to `COc1cc(C(=O)O)ccc1O` [Vanillic acid, vanillic acid], on xanthine oxidase, the IC50 was greater than 1190 µM and the inhibition at 200 µg/mL was 25 ± 1.47%. In addition, in series [1], the “IC50 (μg/ml) ·OH” value was 897.33 ± 9.90^i μg/ml. Also, the “IC50 (μg/ml) DPPH·” value in series [2] is reported as 86.06 ± 1.33^i μg/ml. Besides, in series [2] (listed as vanillic acid), the “IC50 (μg/ml) DPPH·” value was greater than 50 µg/mL. Besides, the “Urinary excretion, phenolic acids” value in series [3] turned out to be 6.62 ± 2.79 nmol.

For `O=C(O)/C=C/c1cccc(O)c1` [m-Coumaric acid, m-coumaric acid], the IC50 at xanthine oxidase is 942 µM. At xanthine oxidase (xanthine oxidase, 200 μg/ml), the inhibition at 200 µg/mL came to 52.8 ± 1.57%. The “IC50 (μg/ml) ·OH” value in series [1] was 256.43 ± 9.33^f μg/ml. For the same compound, the “IC50 (μg/ml) DPPH·” value in series [2] is on record as 21.93 ± 1.25^e μg/ml. Moreover, the “Urinary excretion, phenolic acids” value in series [3] was determined as 39.01 ± 7.33 nmol.

Consider `O=C(O)/C=C/c1ccc(O)cc1` [p-Coumaric acid, p-coumaric acid], for which the IC50 at xanthine oxidase was 852 µM. The inhibition at 200 µg/mL at xanthine oxidase (xanthine oxidase, 200 μg/ml) stood at 57.4 ± 0.62%. The “IC50 (μg/ml) ·OH” value in series [1] was 220.13 ± 4.57^e μg/ml. In series [2], the “IC50 (μg/ml) DPPH·” value is given as 16.53 ± 0.65^d μg/ml. Further, in series [3], the “Urinary excretion, phenolic acids” value came out at 13.89 ± 1.65 nmol.
